In patent publication US5905090A, “Analogues of the active metabolite of leflunomide” (Italfarmaco S.p.A., priority 1998, dated 1999):

Assays:
CD25 = test: Inhibition of lymphocyte activation antigens expression: CD25 (OKT3-stimulated PBMC, flow cytometry); format: cell-based; settings: human PBMC, 24 hr
Experimental: (§1) Inhibition of lymphocyte activation antigens expression.
(§2) Human peripheral blood mononuclear cells (PBMC) from healthy donors were separated by Ficoll-Hypaque density-gradient centrifugation. The cells recovered were suspended in culture medium (RPMI 1640 supplemented with 10% foetal bovine serum, 2 mM L-glutamine, 100 IU/ml penicillin and 100 μg/ml streptomycin).
(§3) PBMC, suspended at a density of 10^6 cells/ml in culture medium, were incubated in 24-well plates (Costar, Cambridge, Mass.) with the tested compounds and, 30 min later, stimulated with optimal concentration of the monoclonal antibodies OKT3 (Ortho Diagnostic Inc., Raritan, N.J.) for 24 hr at 37° C. and under 5% CO2. At the end of incubation, cells were washed twice with PBS containing 2% human serum (Irvine Scientific, Irvine, Calif.) and then incubated with fluorescein isothiocyanate (FITC)-conjugated monoclonal antibodies (Mab) for 30 min on ice. Cells were then washed as above and fluorescence analysis was performed by flow-cytometry on a FACScan (Becton-Dickinson, Mountain View, Calif.). The Mabs used were anti-Leu5b (CD2), anti-Interleukin-2 receptor (CD25) and anti transferrin receptor (CD71). Fluorescence background was determined by incubating the cells with FITC-conjugated mouse IgG of the relevant isotype. Forward- and right-angle scatter were set in order to include lymphocytes and lymphoblasts. The results, expressed as percentage of inhibition of mean fluorescence (MF), were calculated as follows: [formula]

CD2 = test: Inhibition of lymphocyte activation antigens expression: CD2 (OKT3-stimulated PBMC, flow cytometry); format: cell-based; settings: human PBMC, 24 hr
Experimental: as §1, §2, §3

[1] = tested on: murine splenocytes (BALB/c and DBA/2 mice); test: Mixed lymphocyte reaction (MLR), bi-directional, [3H]-thymidine proliferation; format: cell-based, murine (BALB/c and DBA/2 mice); settings: Mus musculus, Splenocyte, 96 hours
Experimental: Mixed lymphocyte reaction (MLR).
Bi-directional MLR was carried out using murine cells. Splenocytes were prepared from BALB/c and DBA/2 mice (18-20 g) Charles River, Calco, Italy). Briefly, single cell suspensions were isolated from spleen by Ficoll-Hypaque (biochrom, Berlin, Germany) density gradient centrifugation. 5×10^4 splenocytes from each preparation was cultured for 96 hours in triplicate in 96-well round-bottom plates (Nunc, Roskilde, Denmark), in the absence or presence of serial dilutions of the tested compounds. All compounds were dissolved in dimethyl sulfoxide (DMSO) to a final 20 mM concentration and then diluted into the culture medium used for the cell assay. To take into account a possible interference from DMSO, each experiment included a control in which the DMSO concentration was made equal to those of compound-treated cultures. Culture medium used was RPMI 1640 (Biochrom, Berlin, Germany), supplemented with 5% foetal bovine serum (Hyclone Laboratories Inc., Logan, Utah), 50 μm 2-mercaptoethanol, 2 mM L-glutamine, 0.1 mM non-essential amino acids, 1 mM sodium pyruvate, 100 IU/ml penicillin, and 100 μg/ml streptomycin. During the last 18 hours of culture, cells were pulsed with 1 μCi of [^3 H]-thymidine (Amersham, UK) and then harvested onto glass fiber filters by means of a cell harvester. Radioacivity, proportional to proliferation, was measured with a β-counter.

CD71 = test: Inhibition of lymphocyte activation antigens expression: CD71 (OKT3-stimulated PBMC, flow cytometry); format: cell-based; settings: human PBMC, 24 hr
Experimental: as §1, §2, §3

[2] = tested on: adjuvant arthritis (complete Freund's adjuvant); test: Adjuvant arthritis in the rat; format: in vivo, rat (male Lewis); settings: p.o. daily
[3] = tested on: antigen-induced paw edema (KLH-immunised BALB/c mice); test: Antigen-induced paw edema in the mouse; format: in vivo, mouse (female BALB/c); settings: daily day 0 to day 13, 8 hours after challenge
Experimental: Antigen-induced paw edema in the mouse.
Groups of 4-8 female BALB/c mice (20-22 g; Charles River, Calco, Italy) were immunised at days 0 and 7 with two s.c. injections, of keyhole limpet hemocyanin (KLH, 100 μg/mouse; Sigma Chemicals, S. Louis, Mo.) emulsified in 0.2 ml complete Freund's adjuvant (CFA, Sigma Chemicals, S. Louis, Mo.). Non-immunised mice (Control) were treated with CFA alone. On day 14, immunised mice were challenged in the hind footpad with 20 μg KLH suspended in physiological solution. Eight hours after antigen challenge the edema was quantified measuring the dorsal-ventral thickness of the footpad with a scientific micrometer (Borletti, Italy). To evaluate their immunosuppressive activity, the compounds were administered daily from day 0 to day 13.

IC50 (CD25) | IC50 (CD2) | IC50 (CD71) | Structure (SMILES) | IC50 [1] | Inhibition (%) of arthritis score ([2]; Day 14) | Arthritis score ([2]; Day 14, vehicle score 3.6 ± 0.5) | Inhibition (%) of arthritis score ([2]; Day 17) | Arthritis score ([2]; Day 17, vehicle score 4.8 ± 0.4) | Inhibition (%) of arthritis score ([2]; Day 21) | Arthritis score ([2]; Day 21, vehicle score 4.8 ± 0.6) | Percentage of inhibition of edema formation ([3]; 10 mg/Kg i.p.) | Percentage of inhibition of edema formation ([3]; 10 mg/Kg p.o.)
18.4 µM | 15.3 µM | 18.8 µM | CC(O)=C(C(=O)Nc1ccc(C(F)(F)F)cc1)C(=O)Nc1ccc(C(F)(F)F)cc1 [Example 1, N-(4-trifluoromethylphenyl)-2-(4-trifluoromethylphenylcarbamoyl)-3-hydroxybut-2-enamide] | 11.9 ± 0.1 µM | – | – | – | – | – | – | – | –
14.8 µM | 13.8 µM | 66.5 µM | O=C(Nc1ccc(C(F)(F)F)cc1)C1=C(O)COC1=O [Example 2, N-(4-trifluoromethylphenyl)-4-hydroxy-2-oxo-(5H)-furan-3-carboxamide] | 3.4 ± 1.1 µM | – | – | – | – | – | – | – | –
2.9 µM | 2.9 µM | 11 µM | O=C1CCC(O)=C1C(=O)Nc1ccc(C(F)(F)F)cc1 [Example 3] | 1.25 ± 0.2 µM | 42% | 2.1 ± 0.1 | 46% | 2.6 ± 0.1 | 19% | 3.9 ± 0.2 | – | –
> 100 µM | 95.4 µM | > 100 µM | O=C1CCCC(O)=C1C(=O)Nc1ccc(C(F)(F)F)cc1 [Example 4] | 45.9 ± 29.5 µM | – | – | – | – | – | – | – | –
2.4 µM | 3 µM | 4.4 µM | O=C(Nc1ccc(C(F)(F)F)cc1)c1ccccc1O [Example 5, N-(4-trifluoromethylphenyl)-2-hydroxy-benzamide] | 1.65 ± 0.1 µM | – | – | – | – | – | – | 37% | –
130 µM | 126 µM | > 100 µM | Cc1oncc1C(=O)Nc1ccc(C(F)(F)F)cc1 [Leflunomide, 5-methyl-N-(4-trifluoromethylphenyl)isossazole-4-carboxamide] | 9.6 ± 3.1 µM | – | – | – | – | – | – | – | 43%
